BindingDB's records for doi:10.7270/Q2TX3CTT (Broad Institute, 2010)

Molecular target: Glycogen synthase kinase-3 beta (Homo sapiens, UniProt P49841)
Assay: concentration-response blocking of human GSK3B – biochemical, luminescence, cell-free homogeneous, retest, dose response (AID 434954)

Sequence of Glycogen synthase kinase-3 beta (P49841 whole entry): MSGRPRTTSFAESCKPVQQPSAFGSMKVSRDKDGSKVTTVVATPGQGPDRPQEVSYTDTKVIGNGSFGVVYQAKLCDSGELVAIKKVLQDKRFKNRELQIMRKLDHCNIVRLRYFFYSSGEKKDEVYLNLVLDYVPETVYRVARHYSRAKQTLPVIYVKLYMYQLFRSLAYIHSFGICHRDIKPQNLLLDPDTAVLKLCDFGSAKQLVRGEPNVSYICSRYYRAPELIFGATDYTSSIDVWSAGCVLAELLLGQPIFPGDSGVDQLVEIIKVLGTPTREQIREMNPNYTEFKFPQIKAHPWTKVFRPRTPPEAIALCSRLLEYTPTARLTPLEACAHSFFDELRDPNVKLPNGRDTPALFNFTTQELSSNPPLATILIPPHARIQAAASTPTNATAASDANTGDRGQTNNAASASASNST

Row | EC50 [µM] | SMILES
1 | 2.17 | Nc1nc(NCC2CCCO2)nc(Nc2ccccc2)c1[N+](=O)[O-] (stereo not given) [5-nitro-2-N-(oxolan-2-ylmethyl)-4-N-phenylpyrimidine-2,4,6-triamine]
2 | > 300 | COc1cc(C2C3=C(CC(C)(C)CC3=O)N=C(C)C2C#N)ccc1O (stereo not given) [4-(4-hydroxy-3-methoxyphenyl)-2,7,7-trimethyl-5-oxo-1,4,6,8-tetrahydroquinoline-3-carbonitrile]
3 | > 300 | O=C(CN(Cc1cccs1)C(=O)CCC(=O)Nc1ccccn1)NCc1ccccc1 [N'-[2-oxo-2-[(phenylmethyl)amino]ethyl]-N-(2-pyridinyl)-N'-(thiophen-2-ylmethyl)butanediamide]
4 | > 300 | Nc1nc(NCCCN2CCOCC2)nc(Nc2ccc(F)cc2)c1[N+](=O)[O-] [4-N-(4-fluorophenyl)-2-N-(3-morpholin-4-ylpropyl)-5-nitropyrimidine-2,4,6-triamine]
5 | > 300 | Cc1c(O)ccc(C(=O)CN2CCN(c3ccc(F)cc3)CC2)c1O [1-(2,4-dihydroxy-3-methylphenyl)-2-[4-(4-fluorophenyl)-1-piperazinyl]ethanone]
6 | > 300 | COc1cccc2cc(C(=O)Oc3ccccc3)c(=O)oc12 [MLS000999696]
7 | > 300 | COc1cccc(C(=O)Nc2nc(-c3ccncc3)cs2)c1 [3-methoxy-N-(4-pyridin-4-yl-1,3-thiazol-2-yl)benzamide]
8 | > 300 | CC(C)Nc1nc(-c2ccncc2)nc(-c2ccccc2)c1C#N [SMR000549424]
9 | > 300 | c1cncc(-c2nc(NCc3ccco3)c3ccccc3n2)c1 [N-(2-furanylmethyl)-2-(3-pyridinyl)-4-quinazolinamine]
10 | > 300 | COCCCNC(=O)c1ccc(CS(=O)(=O)c2ccc(OC)cc2)o1 [5-[(4-methoxyphenyl)sulfonylmethyl]-N-(3-methoxypropyl)furan-2-carboxamide]
11 | > 300 | CCN1CCN(Cc2c(O)ccc3c2O/C(=C\C=C\c2ccccc2)C3=O)CC1 [SMR000221319]
12 | > 300 | COc1ccc(OC)c(Nc2nc(N)c([N+](=O)[O-])c(NC3CCCCC3)n2)c1 [N4-cyclohexyl-N2-(2,5-dimethoxyphenyl)-5-nitropyrimidine-2,4,6-triamine]
13 | > 300 | CCOC(=O)c1cnc2ccc(C)cc2c1Nc1ccc(N2CCOCC2)cc1 [6-methyl-4-(4-morpholinoanilino)quinoline-3-carboxylic acid ethyl ester]
14 | > 300 | CN(C)Cc1c(O)ccc2c(-c3ccccc3)cc(=O)oc12 [SMR000277276]
15 | > 300 | O=C(O)c1cc(-c2ccc(C=NN3C(=O)C4C5C=CC(CC5)C4C3=O)o2)ccc1Cl (stereo not given) [SMR000274176]
16 | 9.62 | CCC(C)Nc1nc(N)c([N+](=O)[O-])c(NCc2ccccc2)n1 (stereo not given)
17 | > 300 | COc1cc(C(c2nnnn2C(C)(C)C)N2CCN(c3nc4ccccc4s3)CC2)ccc1O (stereo not given) [MLS000027473]
18 | > 300 | COc1cccc(C2c3c([nH]n(-c4ccccc4)c3=O)N=C3CCCC(=O)C32)c1 (stereo not given) [3-hydroxy-4-(3-methoxyphenyl)-2-phenyl-2,4,6,7,8,9-hexahydro-5H-pyrazolo[3,4-b]quinolin-5-one]
19 | > 300 | CC(=O)Nc1ccc(C(=O)OCCCOC(=O)c2ccc(NC(C)=O)cc2)cc1
20 | 14.4 | CCOC(=O)c1nnn(-c2nonc2N)c1-c1ccc(OC)cc1 [1-(4-amino-1,2,5-oxadiazol-3-yl)-5-(4-methoxyphenyl)-4-triazolecarboxylic acid ethyl ester]
21 | 0.742 | COCCCNc1nc(N)c([N+](=O)[O-])c(Nc2cc(OC)ccc2OC)n1 [N4-(2,5-dimethoxyphenyl)-N2-(3-methoxypropyl)-5-nitro-pyrimidine-2,4,6-triamine]
22 | > 300 | Cc1nn(C)c(C(=O)N2CCc3ccccc32)c1Br [SMR000228334]

Row | EC50 [µM] | SMILES
23 | 4.42 | COc1cc2c(O)c3c(c(-c4ccc5c(c4)OCO5)c2cc1OC)C(=O)OC3 [9-(1,3-benzodioxol-5-yl)-4-hydroxy-6,7-dimethoxy-3H-benzo[f][2]benzofuran-1-one]
24 | > 300 | Cc1ccc(-c2cc(C(=O)NCCc3ccccn3)c3ccccc3n2)c(C)c1 [SMR000264677]
25 | > 300 | CN1CC(=O)Nc2ccc([N+](=O)[O-])cc2C1=O
26 | 19.3 | CCOC(=O)C(C)Sc1ccc2nnc(-c3ccc(F)cc3)n2n1 (stereo not given) [2-[[3-(4-fluorophenyl)-[1,2,4]triazolo[4,3-b]pyridazin-6-yl]thio]propanoic acid ethyl ester]
27 | 155 | O=[N+]([O-])c1ccccc1[CH+][N-]n1c(C2CCCCC2)n[nH]c1=S [5-Cyclohexyl-4-{[1-(2-nitro-phenyl)-meth-(E)-ylidene]-amino}-4H-[1,2,4]triazole-3-thiol]
28 | > 300 | Cc1c(Cl)cccc1NC(=S)N(C)CCC#N [3-(3-chloro-2-methylphenyl)-1-(2-cyanoethyl)-1-methylthiourea]
29 | > 300 | Cc1ccnc(SCCn2c(N3CCOCC3)nc3c2c(=O)[nH]c(=O)n3C)n1 [3-methyl-7-[2-(4-methylpyrimidin-2-yl)sulfanylethyl]-8-morpholin-4-ylpurine-2,6-dione]
30 | > 300 | COc1cccc(C(=O)C(C#N)=C(SC)SC)c1 [MLS000859112]
31 | > 300 | CCN1CCN(C(=O)c2cc3cc4cc(OC)ccc4nc3s2)CC1 [MLS000091315]
32 | > 300 | CC(=O)c1cccc(S(=O)(=O)NC2CCSc3ccccc32)c1 (stereo not given)
33 | 60.3 | CN(C)CCCNc1nc(N)c([N+](=O)[O-])c(NCCO)n1 [2-[[6-amino-2-[3-(dimethylamino)propylamino]-5-nitro-4-pyrimidinyl]amino]ethanol]
34 | > 300 | O=C1Nc2ccccc2C1=NN1CCOCC1 [3-(morpholin-4-ylamino)indol-2-one]
35 | 7.47 | CCCN(CCC)Cc1c(C(=O)NN=CCCc2ccccc2)nnn1-c1nonc1N [1-(4-amino-1,2,5-oxadiazol-3-yl)-5-[(dipropylamino)methyl]-N-(3-phenylpropylideneamino)-4-triazolecarboxamide]
36 | > 300 | CCO[C@H]1OC(C(=O)N2CCN(Cc3ccccc3)CC2)=C[C@@H](C)[C@@H]1CCCO
37 | > 300 | COCCn1c(SCC(=O)Nc2ccc(Cl)c(S(=O)(=O)N(C)C)c2)nc2ccccc21 [MLS000536225]
38 | 5.08 | CSc1nc(SCC(N)=O)c2c3c(sc2n1)CN(C)CC3
39 | > 300 | COc1cc(/C=N/NC(=O)c2ccccc2F)ccc1Oc1ccc([N+](=O)[O-])cn1 [MLS000779573]
40 | > 300 | Cc1oc2c(CN(C)C)c(O)ccc2c(=O)c1-c1ccc2ccccc2n1 [8-[(dimethylamino)methyl]-2-methyl-7-oxidanyl-3-quinolin-2-yl-chromen-4-one]
41 | > 300 | CC(=O)NC(=S)Nc1ccccc1N1CCCCC1 [SMR000292167]
42 | 21.3 | COc1ccc(CN(CC(=O)NCc2ccccc2)C(=O)CCC(=O)Nc2cc(C)ccn2)cc1 [N-(Benzylcarbamoyl-methyl)-N-(4-methoxy-benzyl)-N'-(4-methyl-pyridin-2-yl)-succinamide]
43 | > 300 | Cc1ccccc1-c1nnc(SCc2ccc(F)cc2)o1 [2-[(4-fluorophenyl)methylsulfanyl]-5-(2-methylphenyl)-1,3,4-oxadiazole]
44 | 3.44 | CNc1nc(N)c([N+](=O)[O-])c(Nc2ccccc2OC)n1 [N4-(2-methoxyphenyl)-N2-methyl-5-nitro-pyrimidine-2,4,6-triamine]

Row | SMILES | EC50 [µM]
45 | COc1cc2c(cc1O)C[C@H]1NCCc3cc4c(c-2c31)OCO4 [SMR000156298] | 16.3
